Data as given in patent publication EP1832576A1, “4-Biarylyl-1-phenolyzetidin-2-ones” (Microbia Inc., priority 2003, dated 2005).

Test system: cholesterol absorption from the intestine
Assay: In Vivo Assay of Hypolipidemic Agents using the Rat Cholesterol Absorption Model
Design: species or system Female Sprague-Dawley rats
Conditions: po, Table 1, perorally, 1 mg/kg, 3H levels in serum three hours after 3H-cholesterol, versus vehicle only control
Method: In Vivo Assay of Hypolipidemic Agents using the Rat Cholesterol Absorption Model. This model is based on models described by Burnett et al (2002), Bioorg. Med. Chem. Lett. 2002 Feb 11;12(3):315-8 and J. Lipid Res. 1999 Oct;40(10):1747-57. Female Sprague-Dawley rats weighing 150-250g are separated into […] and fasted overnight. The animals (4-6/group) are dosed perorally with 300µL test compounds in olive oil or suitable vehicle. Thirty minutes later, 3-5 microCuries ^3H-cholesterol per rat are delivered perorally in 300 µL olive oil. After three hours, 200 µL serum is collected, vortexed with scintillation fluid, and measured for radioactivity in a scintillation counter. Percent inhibition is defined as 100*(1-Ctest/Cctrl), where Ctest and Cctrl refer to ^3H levels in serum for the test compound and for the vehicle only control, respectively. Percent inhibition values are reported for a fixed dose. The ED50 is the dose at which the half-maximal effect on serum ^3H levels is observed for a given test compound.
Representative compounds of the invention were tested in the Rat Cholesterol Absorption model above.

Row | SMILES | inhibition at 1 mg/kg
1 | O=C1[C@H](CC[C@H](O)c2ccc(F)cc2)[C@@H](c2ccc(-c3ccc4c(c3)OCCO4)cc2)N1c1ccc(F)cc1 [Example 87, (3R,4S)-4-[4-(2,3-dihydro-1,4-benzodioxin-6-yl)phenyl]-1-(4-fluorophenyl)-3-[(3S)-3-(4-fluorophenyl)-3-hydroxypropyl]azetidin-2-one] | 59%
2 | O=C(O)Cc1ccc(-c2ccc([C@@H]3[C@@H](CC[C@H](O)c4ccc(F)cc4)C(=O)N3c3ccc(F)cc3)cc2)cc1 [Example 88, (4'-{(2S,3R)-1-(4-fluorophenyl)-3-[(3S)-3-(4-fluorophenyl)-3-hydroxypropyl]-4-oxoazetidin-2-yl}biphenyl-4-yl)acetic acid] | 30%
3 | COC(=O)c1ccc(-c2ccc([C@@H]3[C@@H](CC[C@H](O)c4ccc(F)cc4)C(=O)N3c3ccc(F)cc3)cc2)cc1 [Example 89, methyl 4'-{(2S,3R)-1-(4-fluorophenyl)-3-[(3S)-3-(4-fluorophenyl)-3-hydroxypropyl]-4-oxoazetidin-2-yl} biphenyl-4-carboxylate] | 45%
4 | Cc1cc(C)cc(-c2ccc([C@@H]3[C@@H](CC[C@H](O)c4ccc(F)cc4)C(=O)N3c3ccc(F)cc3)cc2)c1 [Example 90, (3R,4S)-4-(3',5'-dimethylbiphenyl-4-yl)-1-(4-fluorophenyl)-3-[(3S)-3-(4-fluorophenyl)-3-hydroxypropyl]azetidin-2-one] | 27%
5 | O=C1[C@H](CC[C@H](O)c2ccc(F)cc2)[C@@H](c2ccc(-c3ccc4ccccc4c3)cc2)N1c1ccc(F)cc1 [Example 91, (3R,4S)-1-(4-fluorophenyl)-3-[(3S)-3-(4-fluorophenyl)-3-hydroxypropyl]-4-[4-(2-naphthyl)phenyl]azetidin-2-one] | 56%
6 | O=C1[C@H](CC[C@H](O)c2ccc(F)cc2)[C@@H](c2ccc(-c3cccc(C(F)(F)F)c3)cc2)N1c1ccc(F)cc1 [Example 92, (3R,4S)-1-(4-fluorophenyl)-3-[(3S)-3-(4-fluorophenyl)-3-hydroxypropyl]-4-[3'-(trifluoromethyl)biphenyl-4-yl]azetidin-2-one] | 17%
7 | Cc1cccc(-c2ccc([C@@H]3[C@@H](CC[C@H](O)c4ccc(F)cc4)C(=O)N3c3ccc(F)cc3)cc2)c1 [Example 93, (3R,4S)-1-(4-fluorophenyl)-3-[(3S)-3-(4-fluorophenyl)-3-hydroxypropyl]-4-(3'-methylbiphenyl-4-yl)azetidin-2-one] | 28%
8 | Cc1cc(-c2ccc([C@@H]3[C@@H](CC[C@H](O)c4ccc(F)cc4)C(=O)N3c3ccc(F)cc3)cc2)ccc1F [Example 94, (3R,4S)-4-(4'-fluoro-3'-methylbiphenyl-4-yl)-1-(4-fluorophenyl)-3-[(3S)-3-(4-fluorophenyl)-3-hydroxypropyl]azetidin-2-one] | 30%
9 | O=C1[C@H](CC[C@H](O)c2ccc(F)cc2)[C@@H](c2ccc(-c3cccc(O[C@H]4O[C@@H](CO)[C@H](O)[C@@H](O)[C@@H]4O)c3)cc2)N1c1ccc(F)cc1 [Example 95, 4'-{(2S,3R)-1-(4-fluorophenyl)-3-[(3S)-3-(4-fluorophenyl)-3-hydroxypropyl]-4-oxoazetidin-2-yl}biphenyl-3-yl β-L-glucopyranoside] | 57%
10 | COc1ccc(-c2ccc([C@@H]3[C@@H](CC[C@H](O)c4ccc(F)cc4)C(=O)N3c3ccc(F)cc3)cc2)c(OC)c1OC [Example 96, (3R,4S)-1-(4-fluorophenyl)-3-[(3S)-3-(4-fluorophenyl)-3-hydroxypropyl]-4-(2',3',4'-trimethoxybiphenyl-4-yl)azetidin-2-one] | 69%
11 | COc1ccc(-c2ccc([C@@H]3[C@@H](CC[C@H](O)c4ccc(F)cc4)C(=O)N3c3ccc(F)cc3)cc2)c(OC)c1 [Example 97, (3R,4S)-4-(2',4'-dimethoxybiphenyl-4-yl)-1-(4-fluorophenyl)-3-[(3S)-3-(4-fluorophenyl)-3-hydroxypropyl]azetidin-2-one] | 40%
12 | Cc1ccccc1-c1ccc([C@@H]2[C@@H](CC[C@H](O)c3ccc(F)cc3)C(=O)N2c2ccc(F)cc2)cc1 [Example 98, (3R,4S)-1-(4-fluorophenyl)-3-[(3S)-3-(4-fluorophenyl).3-hydroxypropyl]-4-(2'-methylbiphenyl-4-yl)azetidin-2-one] | 7%
13 | O=Cc1ccc(-c2ccc([C@@H]3[C@@H](CC[C@H](O)c4ccc(F)cc4)C(=O)N3c3ccc(F)cc3)cc2)cc1 [Example 99, 4'-{(2S,3R)-1-(4-fluorophenyl)-3-[(3S)-3-(4-fluorophenyl)-3-hydroxypropyl]-4-oxoazetidin-2-yl}-biphenyl-4-carbaldehyde] | 38%
14 | CCOc1cccc(-c2ccc([C@@H]3[C@@H](CC[C@H](O)c4ccc(F)cc4)C(=O)N3c3ccc(F)cc3)cc2)c1 [Example 100, (3R,4S)-4-(3'-ethoxybiphenyl-4-yl)-1-(4-fluorophenyl)-3-[(3S)-3-(4-fluorophenyl)-3-hydroxypropyl]azetidin-2-one] | 54%
15 | CCOc1ccc(-c2ccc([C@@H]3[C@@H](CC[C@H](O)c4ccc(F)cc4)C(=O)N3c3ccc(F)cc3)cc2)cc1 [Example 101, (3R,4S)-4-(4'-ethoxybiphenyl-4-yl)-1-(4-fluorophenyl)-3-[(3S)-3-(4-fluorophenyl)-3-hydroxypropyl]azetidin-2-one] | 41%
16 | COc1cc(-c2ccc([C@@H]3[C@@H](CC[C@H](O)c4ccc(F)cc4)C(=O)N3c3ccc(F)cc3)cc2)ccc1O [Example 102, (3R,4S)-1-(4-fluorophenyl)-3-[(3S)-3-(4-fluorophenyl)-3-hydroxypropyl]-4-(4'-hydroxy-3'-methoxybiphenyl-4-yl)azetidin-2-one] | 56%
17 | CCCOc1cccc(-c2ccc([C@@H]3[C@@H](CC[C@H](O)c4ccc(F)cc4)C(=O)N3c3ccc(F)cc3)cc2)c1 [Example 103, (3R,4S)-1-(4-fluorophenyl)-3-[(3S)-3-(4-fluorophenyl)-3-hydroxypropyl]-4-(3'-propoxybiphenyl-4-yl)azetidin-2-one] | 21%
18 | O=Cc1ccc(O)cc1-c1ccc([C@@H]2[C@@H](CC[C@H](O)c3ccc(F)cc3)C(=O)N2c2ccc(F)cc2)cc1 [Example 104, 4'-{(2S,3R)-1-(4-fluorophenyl)-3-[(3S)-3-(4-fluorophenyl)-3-hydroxypropyl]-4-oxoazetidin-2-yl}-5-hydroxybiphenyl-2-carbaldehyde] | 52%
19 | CC(C)Oc1cccc(-c2ccc([C@@H]3[C@@H](CC[C@H](O)c4ccc(F)cc4)C(=O)N3c3ccc(F)cc3)cc2)c1 [Example 105, (3R,4S)-1-(4-fluorophenyl)-3-[(3S)-3-(4-fluorophenyl)-3-hydroxypropyl]-4-(3'-isopropoxybiphenyl-4-yl)azetidin-2-one] | 15%
20 | O=C(O)c1cc(-c2ccc([C@@H]3[C@@H](CC[C@H](O)c4ccc(F)cc4)C(=O)N3c3ccc(F)cc3)cc2)ccc1O [Example 106, 4'-{(2S,3R)-1-(4-fluorophenyl)-3-[(3S)-3-(4-fluorophenyl)-3-hydroxypropyl]-4-oxoazetidin-2-yl}-4-hydroxybiphenyl-3-carboxylic acid] | 66%
